In ChEMBL document CHEMBL2177026, “Acyl guanidine inhibitors of β-secretase (BACE-1): optimization of a micromolar hit to a nanomolar lead via iterative solid- and solution-phase library synthesis” (J Med Chem, 2012):
Active and inactive are the calls of the source. No cut-off for these calls is given here.

Legend:
Rattus norvegicus [1] = experiment: Antialzheimer activity in sc dosed rat assessed as reduction in amyloid beta (1 to 40) level in plasma measured after 5 hrs by ELISA relative to control; assay type: functional, organism-based
Rattus norvegicus [2] = experiment: Antialzheimer activity in rat assessed as amyloid beta (1 to 40) level in brain at 40 mg/kg, sc preadministered with ABT measured after 5 hrs by ELISA relative to control; assay type: functional; details: route subcutaneous
Beta-secretase 1 [3] = molecular target: T1, Beta-secretase 1 (Homo sapiens, UniProt P56817); experiment: Ratio of IC50 for BACE1 in human KBV1 cells expressing APP 751 Swedish mutant in absence of tariquidar to IC50 for BACE1 in human KBV1 cells expressing APP 751 Swedish mutant in presence of tariquidar; assay type: cell-based
[4] = Plasma concentration in rat at 40 mg/kg, sc preadministered with ABT measured after 5 hrs by LC/MS/MS analysis; assay type: ADME, organism-based; parameters: dose 40 mg/kg, route subcutaneous
[5] = molecular target: T2, Cathepsin E (Homo sapiens) (UniProt P14091); experiment: Inhibition of cathepsin E by radioligand binding assay
T2 sequence (whole entry): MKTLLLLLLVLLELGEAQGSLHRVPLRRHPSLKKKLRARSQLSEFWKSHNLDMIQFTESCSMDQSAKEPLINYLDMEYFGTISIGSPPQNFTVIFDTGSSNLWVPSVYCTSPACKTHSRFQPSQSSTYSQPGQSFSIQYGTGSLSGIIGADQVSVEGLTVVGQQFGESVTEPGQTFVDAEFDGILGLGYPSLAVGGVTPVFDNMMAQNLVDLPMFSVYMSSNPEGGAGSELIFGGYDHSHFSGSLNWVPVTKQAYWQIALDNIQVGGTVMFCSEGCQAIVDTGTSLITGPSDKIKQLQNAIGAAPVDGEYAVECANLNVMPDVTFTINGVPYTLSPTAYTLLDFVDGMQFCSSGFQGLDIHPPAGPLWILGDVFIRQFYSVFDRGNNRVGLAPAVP

Rattus norvegicus [6] = experiment: Antialzheimer activity in rat assessed as amyloid beta (1 to 40) level in CSF at 5 mg/kg, sc measured after 5 hrs by ELISA relative to control; assay type: functional; details: route subcutaneous
Rattus norvegicus [7] = experiment: Antialzheimer activity in rat assessed as amyloid beta (1 to 40) level in CSF at 40 mg/kg, sc preadministered with ABT measured after 5 hrs by ELISA relative to control; assay type: functional; details: route subcutaneous
[8] = Drug uptake in rat brain at 5 mg/kg, sc measured after 5 hrs by LC/MS/MS analysis; assay type: ADME, organism-based; parameters: dose 5 mg/kg, route subcutaneous; details: read-out: Drug uptake
[9] = molecular target: Voltage-gated inwardly rectifying potassium channel KCNH2 (Homo sapiens, UniProt Q12809); experiment: Activity at human ERG channel by fluorescence-based thallium flux assay
Beta-secretase 1 [10] = molecular target: T1, Beta-secretase 1; experiment: Displacement of [3H]BMS-599240 from BACE1 expressed in HEK293 cells; assay type: cell-based
[11] = molecular target: Cathepsin D (Homo sapiens) (UniProt P07339); experiment: Inhibition of cathepsin D by radioligand binding assay
[12] = Plasma concentration in rat at 15 mg/kg, sc after 5 hrs by LC/MS/MS analysis; assay type: ADME, organism-based; parameters: dose 15 mg/kg, route subcutaneous
Rattus norvegicus [13] = experiment: Antialzheimer activity in rat assessed as amyloid beta (1 to 40) level in plasma at 40 mg/kg, sc preadministered with ABT measured after 5 hrs by ELISA relative to control; assay type: functional; details: route subcutaneous
Beta-secretase 1 [14] = molecular target: T1, Beta-secretase 1; experiment: Inhibition of BACE1 in human KBV1 cells expressing APP 751 Swedish mutant assessed as inhibition of amyloid beta (1 to 40) production after overnight incubation by ELISA in presence of tariquidar; assay type: cell-based
Beta-secretase 1 [15] = molecular target: T1, Beta-secretase 1; experiment: Ratio of IC50 for BACE1 in HEK293 cells expressing APP 695 Swedish mutant to Ki for BACE1; assay type: cell-based
[16] = Drug uptake in rat CSF at 15 mg/kg, sc after 5 hrs by LC/MS/MS analysis; assay type: ADME, organism-based, Cerebrospinal fluid; parameters: dose 15 mg/kg, route subcutaneous; details: read-out: Drug uptake
Rattus norvegicus [17] = experiment: Antialzheimer activity in rat assessed as amyloid beta (1 to 40) level in plasma at 5 mg/kg, sc measured after 5 hrs by ELISA relative to control; assay type: functional; details: route subcutaneous
Rattus norvegicus [18] = experiment: Antialzheimer activity in rat assessed as amyloid beta (1 to 40) level in plasma at 15 mg/kg, sc measured after 5 hrs by ELISA relative to control; assay type: functional; details: route subcutaneous
[19] = Plasma concentration in rat at 5 mg/kg, sc measured after 5 hrs by LC/MS/MS analysis; assay type: ADME, organism-based; parameters: dose 5 mg/kg, route subcutaneous
[20] = Drug uptake in rat CSF at 5 mg/kg, sc measured after 5 hrs by LC/MS/MS analysis; assay type: ADME, organism-based, Cerebrospinal fluid; parameters: dose 5 mg/kg, route subcutaneous; details: read-out: Drug uptake
Beta-secretase 1 [21] = molecular target: T1, Beta-secretase 1; experiment: Inhibition of BACE1 in human HEK293 cells expressing APP 695 Swedish mutant assessed as inhibition of amyloid beta (1 to 40) production after overnight incubation by ELISA; assay type: cell-based
[22] = Drug uptake in rat brain at 40 mg/kg, sc preadministered with ABT measured after 5 hrs by LC/MS/MS analysis; assay type: ADME, organism-based; parameters: dose 40 mg/kg, route subcutaneous; details: read-out: Drug uptake
Rattus norvegicus [23] = experiment: Antialzheimer activity in rat assessed as amyloid beta (1 to 40) level in brain at 5 mg/kg, sc measured after 5 hrs by ELISA relative to control; assay type: functional; details: route subcutaneous
[24] = Drug uptake in rat CSF at 40 mg/kg, sc preadministered with ABT measured after 5 hrs by LC/MS/MS analysis; assay type: ADME, organism-based, Cerebrospinal fluid; parameters: dose 40 mg/kg, route subcutaneous; details: read-out: Drug uptake
Rattus norvegicus [25] = experiment: Antialzheimer activity in rat assessed as amyloid beta (1 to 40) level in CSF at 15 mg/kg, sc measured after 5 hrs by ELISA relative to control; assay type: functional; details: route subcutaneous
Rattus norvegicus [26] = experiment: Antialzheimer activity in rat assessed as amyloid beta (1 to 40) level in brain at 15 mg/kg, sc measured after 5 hrs by ELISA relative to control; assay type: functional; details: route subcutaneous
[27] = Inhibition of pepsin by radioligand binding assay
Beta-secretase 1 [28] = molecular target: T1, Beta-secretase 1; experiment: Inhibition of BACE1 in human KBV1 cells expressing APP 751 Swedish mutant assessed as inhibition of amyloid beta (1 to 40) production after overnight incubation by ELISA in absence of tariquidar; assay type: cell-based
[29] = Drug uptake in rat brain at 15 mg/kg, sc after 5 hrs by LC/MS/MS analysis; assay type: ADME, organism-based; parameters: dose 15 mg/kg, route subcutaneous; details: read-out: Drug uptake

T1 sequence (P56817 whole entry): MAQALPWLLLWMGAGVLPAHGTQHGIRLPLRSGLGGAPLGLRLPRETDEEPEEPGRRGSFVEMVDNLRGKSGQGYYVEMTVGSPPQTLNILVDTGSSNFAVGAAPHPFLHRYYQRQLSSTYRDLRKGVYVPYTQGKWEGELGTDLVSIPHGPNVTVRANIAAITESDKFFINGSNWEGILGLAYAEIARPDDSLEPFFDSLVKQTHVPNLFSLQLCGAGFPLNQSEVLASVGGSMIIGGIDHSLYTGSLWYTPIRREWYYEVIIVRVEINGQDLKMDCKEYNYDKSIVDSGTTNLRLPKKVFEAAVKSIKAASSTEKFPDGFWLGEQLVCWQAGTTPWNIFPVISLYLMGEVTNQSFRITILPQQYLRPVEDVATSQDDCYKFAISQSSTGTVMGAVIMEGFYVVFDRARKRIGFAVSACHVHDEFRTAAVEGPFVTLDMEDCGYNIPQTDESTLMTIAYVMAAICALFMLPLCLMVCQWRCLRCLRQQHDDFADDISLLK
Voltage-gated inwardly rectifying potassium channel KCNH2, sequence (Q12809 whole entry): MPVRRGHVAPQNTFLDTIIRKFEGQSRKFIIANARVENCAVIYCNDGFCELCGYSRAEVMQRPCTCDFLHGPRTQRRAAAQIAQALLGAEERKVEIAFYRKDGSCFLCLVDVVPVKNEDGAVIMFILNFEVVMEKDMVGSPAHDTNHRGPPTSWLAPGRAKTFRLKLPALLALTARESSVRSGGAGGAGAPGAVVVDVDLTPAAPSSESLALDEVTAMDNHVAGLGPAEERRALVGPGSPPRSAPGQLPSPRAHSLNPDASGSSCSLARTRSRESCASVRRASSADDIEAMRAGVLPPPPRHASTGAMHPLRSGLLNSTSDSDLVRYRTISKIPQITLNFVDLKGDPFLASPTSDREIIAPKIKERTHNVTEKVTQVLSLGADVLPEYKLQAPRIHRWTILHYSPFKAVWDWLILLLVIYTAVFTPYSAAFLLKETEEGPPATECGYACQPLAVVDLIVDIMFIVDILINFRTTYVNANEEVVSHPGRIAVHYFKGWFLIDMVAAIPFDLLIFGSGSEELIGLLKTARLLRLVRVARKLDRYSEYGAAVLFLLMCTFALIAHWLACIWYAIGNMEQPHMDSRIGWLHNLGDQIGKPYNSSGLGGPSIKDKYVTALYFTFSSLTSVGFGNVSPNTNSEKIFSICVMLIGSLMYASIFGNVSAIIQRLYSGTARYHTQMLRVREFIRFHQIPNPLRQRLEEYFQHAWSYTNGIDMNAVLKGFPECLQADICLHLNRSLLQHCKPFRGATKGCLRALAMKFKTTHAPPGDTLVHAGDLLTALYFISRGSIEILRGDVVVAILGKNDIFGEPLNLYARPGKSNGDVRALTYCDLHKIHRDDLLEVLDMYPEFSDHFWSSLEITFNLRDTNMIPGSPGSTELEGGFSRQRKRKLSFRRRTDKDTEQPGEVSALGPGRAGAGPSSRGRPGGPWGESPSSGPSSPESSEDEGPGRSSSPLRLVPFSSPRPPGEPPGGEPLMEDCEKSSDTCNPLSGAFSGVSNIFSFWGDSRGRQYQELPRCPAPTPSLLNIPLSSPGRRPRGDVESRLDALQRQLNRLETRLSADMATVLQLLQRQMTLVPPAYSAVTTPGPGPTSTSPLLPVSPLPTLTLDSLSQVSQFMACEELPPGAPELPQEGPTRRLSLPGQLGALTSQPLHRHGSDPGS
Cathepsin D (Homo sapiens), sequence (P07339 65-162 limits assumed): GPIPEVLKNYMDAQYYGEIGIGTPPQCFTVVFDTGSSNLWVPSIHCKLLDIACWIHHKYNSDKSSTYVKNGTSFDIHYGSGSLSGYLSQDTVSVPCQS
Cathepsin D (Homo sapiens), sequence (P07339 169-412 limits assumed): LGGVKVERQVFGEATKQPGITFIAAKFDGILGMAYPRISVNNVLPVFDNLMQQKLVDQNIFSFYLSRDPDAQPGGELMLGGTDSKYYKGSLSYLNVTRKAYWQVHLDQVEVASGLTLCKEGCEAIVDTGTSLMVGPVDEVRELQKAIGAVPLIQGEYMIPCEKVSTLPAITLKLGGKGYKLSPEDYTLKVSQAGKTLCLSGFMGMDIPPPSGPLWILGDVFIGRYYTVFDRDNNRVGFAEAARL

For `COc1ccc(-c2nsc(C)c2C(=O)/N=C(\N)NCc2cc(C)c(NC(=O)CN3CCC3)c(Cl)c2)cc1`, the Activity (Rattus norvegicus [1]) was “Dose-dependent effect”, the Activity (Rattus norvegicus [2]) was 94% and the Ratio IC50 (Beta-secretase 1 [3]) was 36. The concentration at 5 h [4] was 6640 nM, the inhibition [5] was “inactive” and the Activity (Rattus norvegicus [6]) was 105%. For the same molecule, the Activity (Rattus norvegicus [7]) was 82%, the concentration at 5 h [8] was 89 nM and the Activity [9] was “Not Active”. The Ki (Beta-secretase 1 [10]) was 5 nM, the inhibition [11] was “inactive” and the concentration at 5 h [12] was 1170 nM. For the same molecule, the Activity (Rattus norvegicus [13]) was 4%, the IC50 (Beta-secretase 1 [14]) was 5 nM and the Ratio (Beta-secretase 1 [15]) was 1. It also gave a concentration at 5 h [16] of 8 nM, an Activity (Rattus norvegicus [17]) of 18% and an Activity (Rattus norvegicus [18]) of 8%. For the same molecule, the concentration at 5 h [19] was 378 nM, the concentration at 5 h [20] was 4 nM and the IC50 (Beta-secretase 1 [21]) was 5 nM. It also gave a concentration at 5 h [22] of 586 nM, an Activity (Rattus norvegicus [23]) of 89% and a concentration at 5 h [24] of 39 nM. For the same molecule, the Activity (Rattus norvegicus [25]) was 98%, the Activity (Rattus norvegicus [26]) was 102% and the inhibition [27] was “inactive”. For the same molecule, the IC50 (Beta-secretase 1 [28]) was 180 nM and the concentration at 5 h [29] was 320 nM.
